The supplement of paper PMC10331698
± gives the standard deviation of the averaged measurements.

Legend:
Test in all cases: level (log10 ratio to DMSO vehicle control); higher = higher biomarker level / cell amount than vehicle control
[1] = compound: C=C(C)C(=O)OCC(F)(F)C(F)(F)C(F)(F)F [2,2,3,3,4,4,4-Heptafluorobutyl methacrylate]; conditions: in DMSO
Description: (§1)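 BioMAP Diversity Plus panel of 12 human primary cell co-culture systems (3C, 4H, LPS, SAg, BT, BF4T, BE3C, CASM3C, HDF3CGF, KF3CT, MyoF, Mphg). Compounds were added 1 h before stimulation and left for 24 h (MyoF 48 h; BT 72 h for soluble read-outs or 6 d for IgG). Biomarkers were read by ELISA, cytotoxicity by SRB, PBMC viability and proliferation by Alamar Blue. Each well value was divided by the mean of 8 DMSO control wells on the same plate and log10 transformed; duplicate blinded samples were tested at 4 concentrations.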

[2] = compound: OC(C(F)(F)F)(C(F)(F)F)C(O)(C(F)(F)F)C(F)(F)F [Perfluoropinacol]; conditions: in DMSO
Description: as §1

[3] = compound: OCCC(F)(F)C(F)(F)C(F)(F)C(F)(F)C(F)(F)C(F)(F)C(F)(F)C(F)(F)F [8:2 Fluorotelomer alcohol]; conditions: 6700 nM; in DMSO
Description: as §1

[4] = compound: OCC(F)(F)C(F)(F)C(F)(F)C(F)(F)C(F)(F)C(F)(F)C(F)(F)C(F)(F)CO [1H,1H,10H,10H-Perfluorodecane-1,10-diol]; conditions: in DMSO
Description: as §1

[5] = compound: FC(F)(F)COC(OCC(F)(F)F)OCC(F)(F)F [tris(Trifluoroethoxy)methane]; conditions: in DMSO
Description: as §1

[6] = compound: CN(Cc1cnc2nc(N)nc(N)c2n1)c1ccc(C(=O)N[C@@H](CCC(=O)O)C(=O)O)cc1 [Methotrexate]; conditions: in DMSO
Description: as §1

[7] = compound: Cc1ccc(S(=O)(=O)OCC(F)(F)C(F)(F)C(F)(F)C(F)(F)C(F)(F)C(F)F)cc1 [1H,1H,7H-Perfluoroheptyl 4-methylbenzenesulfonate]; conditions: in DMSO
Description: as §1

Test System	level (log10) ([1]; 6700 nM)	level (log10) ([1]; 20000 nM)	level (log10) ([1]; 60000 nM)	level (log10) ([2]; 6700 nM)	level (log10) ([2]; 20000 nM)	level (log10) [3]	level (log10) ([4]; 6700 nM)	level (log10) ([4]; 20000 nM)	level (log10) ([4]; 60000 nM)	level (log10) ([5]; 6700 nM)	level (log10) ([5]; 20000 nM)	level (log10) ([5]; 60000 nM)	level (log10) ([6]; 1500 nM)	level (log10) ([6]; 4400 nM)	level (log10) ([6]; 13000 nM)	level (log10) ([6]; 40000 nM)	level (log10) ([7]; 6700 nM)	level (log10) ([7]; 20000 nM)	level (log10) ([7]; 60000 nM)
HDF3CGF:TIMP-2	-0.008 ± 0.0014	-0.0105 ± 0.022	-0.0245 ± 0.019	-0.0625 ± 0.005	-0.126 ± 0.0021	-0.0475 ± 0.079	-0.006 ± 0.014	-0.0105 ± 0.00071	-0.095	-0.0165 ± 0.029	-0.002 ± 0.037	-0.0105 ± 0.005	-0.0655 ± 0.032	0 ± 0.11	-0.005 ± 0.085	-0.0335 ± 0.15	-0.042 ± 0.081	-0.101 ± 0.053	-0.032 ± 0.035
HDF3CGF:CXCL9/MIG	-0.0185 ± 0.005	-0.024 ± 0.0071	-0.0395 ± 0.011	-0.018 ± 0.018	-0.0675 ± 0.012	0.004 ± 0.0028	0.012 ± 0.013	-0.037 ± 0.014	-0.789	0.007 ± 0.0099	0.002 ± 0.0071	-0.017 ± 0.018	0.002 ± 0.045	-0.003 ± 0.023	-0.0205 ± 0.036	-0.0165 ± 0.057	-0.002 ± 0.0099	0.061 ± 0.025	0.048 ± 0.037
BE3C:MMP-9	0.0155 ± 0.0092	-0.0075 ± 0.016	0.032 ± 0.025	-0.011 ± 0.0014	-0.04 ± 0.0028	-0.028 ± 0.02	0 ± 0.0071	-0.041 ± 0.0042	-0.14	-0.005 ± 0.0028	-0.004 ± 0.0014	0.0045 ± 0.019	0.014 ± 0.021	-0.0025 ± 0.011	0.0045 ± 0.079	0.0085 ± 0.015	0.012 ± 0.027	-0.0165 ± 0.021	-0.003 ± 0.035
HDF3CGF:Collagen III	-0.0545 ± 0.1	-0.075 ± 0.031	-0.034 ± 0.048	0.0175 ± 0.0078	-0.0845 ± 0.0064	-0.0025 ± 0.032	-0.035 ± 0.0071	-0.094 ± 0.045	-0.438	-0.013 ± 0.0071	-0.0205 ± 0.0092	0.0075 ± 0.016	0.0115 ± 0.061	-0.002 ± 0.072	0.004 ± 0.013	-0.026 ± 0.086	-0.0605 ± 0.03	-0.0435 ± 0.011	-0.048 ± 0.073
BE3C:Keratin 8/18	-0.0165 ± 0.056	-0.002 ± 0.05	-0.003 ± 0.03	-0.0145 ± 0.00071	-0.019 ± 0.0028	-0.0185 ± 0.012	-0.034 ± 0.0085	-0.027 ± 0.0085	-0.016	-0.0035 ± 0.019	-0.0215 ± 0.021	0.01 ± 0.0057	-0.0105 ± 0.047	-0.035 ± 0.042	-0.022 ± 0.057	-0.024 ± 0.025	-0.006 ± 0.0085	-0.006 ± 0.048	-0.0065 ± 0.013
MyoF:Collagen III	0.0075 ± 0.0021	0 ± 0.0014	0.0085 ± 0.0078	-0.0405 ± 0.011	-0.136 ± 0.0014	-0.0205 ± 0.021	-0.0305 ± 0.0092	-0.042 ± 0.0099	-0.378	0.0035 ± 0.0035	-0.0005 ± 0.019	0.009 ± 0.0042	-0.011 ± 0.04	-0.001 ± 0.065	0.009 ± 0.069	0.014 ± 0.041	-0.0075 ± 0.00071	-0.0495 ± 0.022	-0.056 ± 0.02
KF3CT:CXCL9/MIG	0.009	0 ± 0.0042	0.0005 ± 0.011	0.002 ± 0.0028	-0.004 ± 0.0071	0.0045 ± 0.0078	-0.0055 ± 0.0092	-0.0085 ± 0.005	-0.195	0.0215 ± 0.032	0.006 ± 0.027	0.0175 ± 0.015	0.001 ± 0.0028	0.002 ± 0.016	-0.0005 ± 0.0021	0.001 ± 0.0014	-0.005 ± 0.014	-0.0025 ± 0.012	-0.008 ± 0.0057
